# Source: patent publication US9908890B2, “Selective inhibitors of constitutive androstane receptor” (ST. JUDE CHILDREN'S RESEARCH HOSPITAL, priority 2014, dated 2018)
# Experiments:
# CAR protein = assay: Western blot of CAR protein in human primary hepatocytes; type: cell-based; details: 5 μM CINPA1, 48 h
# Experimental: (§1) Briefly, CAR binding to PGC-1α coactivator peptide was determined by using the LanthaScreen® fluorescent coregulator peptide assay. Fluorescein-labeled PGC-1α peptide (125 nM) was complexed with GST-hCAR-LBD (5 nM) and Tb-anti-GST antibody (5 nM) as described in Experimental Procedures. […] Lysates were prepared, and CAR expression was analyzed by Western blot using CAR monoclonal antibody (Clone N4111, R&D Systems). β-actin was used as a loading control. […] Briefly, U2OS cells were transfected to express FLAG-hCAR1. […] Secondary antibody labeled with Alexa Fluor® 555 dye was used to visualize FLAG-tagged hCAR1 (shown in the second column) using a NikonC 1Si microscope. Nuclei were stained with DAPI (shown in the first column).
# [1] = test system: FLAG-hCAR1 nuclear localization; assay: Immunofluorescence of FLAG-hCAR1 in U2OS cells; type: cell-based, human; details: 5 μM CINPA1, 2 h
# Experimental: as §1
# U2OS cells were transiently transfected to express FLAG-hCAR1. […] Cells were fixed by using a 4% paraformaldehyde solution (Sigma), permeabilized by using 0.5% Triton X-100 in PBS, and incubated with FLAG-antibody overnight at 4° C. Cells were washed three times with PBS following each step. Secondary antibody labeled with Alexa Fluor® 555 dye was used to visualize FLAG-tagged hCAR1 (red) using a NikonC 1Si microscope. Nuclei were stained with DAPI (blue).
# hPXR = molecular target: T1, hPXR (Homo sapiens, UniProt O75469); assay: PXR luciferase assay (HepG2-PXR Clone 1, CYP3A4-luciferase reporter); type: cell-based
# T1 construct: expressed in transfected cells
# T1 sequence (O75469 1-434): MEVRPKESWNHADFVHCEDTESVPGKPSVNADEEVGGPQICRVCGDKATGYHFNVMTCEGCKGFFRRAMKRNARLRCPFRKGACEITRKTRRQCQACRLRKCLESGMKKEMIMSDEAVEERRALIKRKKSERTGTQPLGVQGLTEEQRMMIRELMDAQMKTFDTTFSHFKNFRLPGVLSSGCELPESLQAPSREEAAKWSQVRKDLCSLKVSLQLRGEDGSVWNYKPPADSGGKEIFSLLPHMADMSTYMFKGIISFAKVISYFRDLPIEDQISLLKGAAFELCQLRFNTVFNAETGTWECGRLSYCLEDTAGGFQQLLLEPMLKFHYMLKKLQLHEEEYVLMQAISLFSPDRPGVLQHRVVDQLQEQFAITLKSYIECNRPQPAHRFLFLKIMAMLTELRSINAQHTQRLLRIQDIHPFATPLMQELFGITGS
# Experimental: Luciferase activity was measured 24 h after treatment by using SteadyLite™ reagent. […] GraphPad Prism was used to fit the data into a dose-response equation to derive IC50 values. […] The percentage of PXR activation was calculated by setting that of DMSO-treated cells (negative control) to 0%, and that of 5 μM rifampicin-treated cells (positive control) to 100%. HepG2 cells stably expressing hPXR and CYP3A4-luciferase reporter (PXR Clone 1) were treated with indicated compounds for 24 h. Luciferase activity was measured 24 h after treatment by using SteadyLite reagent. The percentage of PXR activation was calculated by setting that of DMSO-treated cells (negative control) to 0%, and that of 5 μM rifampicin-treated cells (positive control) to 100%.
# Briefly, HepG2 cells were transiently transfected with plasmids expressing hCAR1, CYP3A4-luc reporter and control plasmid pTK-RL. […] Dual luciferase activity was measured 24 h after treatment using Dual-Glo® luciferase reagent. Renilla luciferase was used to normalize firefly luciferase values and % Luciferase activity was calculated by setting DMSO to 100%. p<0.001, when comparing DMSO to all treatments except 5 μM rifampicin. […] Briefly, HepG2-PXR Clone 1 cells were treated with CINPA1 in a dose-responsive format (40 μM to 2 nM, 1-to-2 dilutions for 10 concentrations) in the presence or absence of 5 μM rifampicin (Rif) for 24 h before luciferase assay using SteadyLite™. % PXR activity was calculated by setting DMSO (negative. control) treated cells to 0% and 5 μM rifampicin (positive. control) treated cells to 100%. GraphPad Prism was used to fit the data into a dose-response stimulation equation to derive IC50 values. […] Briefly, U2OS cells were transiently transfected with plasmids expressing hCAR1, CYP2B6-luc reporter and control plasmid pTK-RL. […] Dual luciferase activity was measured 24 h after treatment. Renilla luciferase was used to normalize firefly luciferase values and % Luciferase activity was calculated by setting DMSO to 100%. *, p<0.0001 comparing CITCO+CINPA1 to CITCO treated cells. […]
structure (smiles),measurement,setting,value
CCOC(=O)Nc1ccc2c(c1)N(C(=O)CN(CC)CC)c1ccccc1CC2 [CINPA1],CAR protein level,CAR protein,had no effect
same,nuclear localization of CAR,[1],does not alter the nuclear localization of CAR
same,inhibition of PXR-mediated gene expression,"hPXR; 18 μM CINPA1 with 5 μM rifampicin, 24 h",weakly inhibited PXR-mediated gene expression
same,agonistic effect on PXR-regulated gene expression,hPXR; 40 μM,did not exhibit any agonistic effect
same,IC50,"hPXR; in the presence of 5 μM rifampicin, read-out: IC50, antagonist of PXR",6.6 µM
